These results are taken from patent publication US20250368678A1, “19-NOR-C3,3-DISUBSTITUTED C21-AZACYCLO-S[…] AND METHOD FOR USING SAME” (SHANDONG LUYE PHARMACEUTICAL CO., LTD., priority 2022, published 2025).

A short description of this data set: In vitro liver microsomal stability assay, human. The class given is in vitro ADME. In short, it runs like this:
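Test compound at […] was incubated at 37° C with 0.5 mg/mL rat or human liver microsomes, 1 mM NADPH and 3 mM MgCl2, in triplicate, sampled 0–60 min. Remaining parent was quantified by LC-MS/MS, giving half-life and microsomal and hepatic intrinsic clearance.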

The structures appear in SMILES notation.

Consider `C[C@@]1(O)CC[C@H]2[C@H](CC[C@@H]3[C@@H]2CC[C@]2(C)[C@@H](C(=O)Cn4cnn(-c5cc(F)nc(F)c5)c4=O)CC[C@@H]32)C1` [Compound 41], for which, where the note is “Human liver microsomes”, the intrinsic clearance (CLint scaled) at 1 µM is less than 6.75 mL/min/kg and the half-life at 1 µM was greater than 186 min. The “Remaining amount % at 60 min” value (Human liver microsomes 0.5 mg/mL, NADPH) worked out at 98.2%. For the same molecule, the microsomal CLint at 1 µM (Human liver microsomes, read-out: CLint(mic)) was less than 7.5 µL/min/mg.
